Among the data in US10167300B2, “Metalloenzyme inhibitor compounds as fungicides” (priority 2014, dated 2019) are pest or weed control values, retold here.

The structures appear in SMILES notation. Bounds are passed on as bounds.

For the first assay, the system named is Mycosphaerella graminicola; Anamorph: Septoria tritici; Bayer Code SEPTTR (standard laboratory isolate, SI SEPTTR). Description: Type A (high volume) assay, leaf blotch of wheat, standard laboratory SEPTTR isolate (SI SEPTTR). It is filed as in vivo, Mycosphaerella graminicola on wheat plants (variety Yuma). The following applies: Zymoseptoria tritici, 24 h, standard laboratory isolate; high volume; 50 ppm; 1 Day Protectant; wheat (Yuma); read-out: Disease Control, SI SEPTTR Type A Assay (50 ppm) 1 DP. The method in brief:
(§1)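 Wheat seedlings (Yuma, first leaf emerged) sprayed with acetone/Triton X-100 solutions (Type A) or 10% EC diluted in 0.1% Trycol at 200 L/ha (Type B), inoculated before or after spraying. Inoculated plants held 3 days at 20 °C, 100% RH, then greenhouse; % disease control from severity versus untreated plants.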
On to `CC(C)(C)C(O)(c1ccc(-c2ccc(OC(F)F)cc2)cn1)c1cncs1` (centres unmarked) [Compound 86], for which the pest or weed control at 50 ppm was 60 to 79%.

`COc1ncncc1C(O)(c1ccc(-c2ccc(OC(F)(F)F)cc2)cn1)C(C)(C)C` (centres unmarked) [Compound 167]: the pest or weed control at 50 ppm lay in the range of 80 to 100%.

Regarding `CC(C)(C)C(O)(c1cncnc1)c1ccc(-c2ccc(F)cc2)cn1` (centres unmarked) [Compound 115], the pest or weed control at 50 ppm lay within 80 to 100%.

On to `CC(=O)c1ccc(-c2ccc(C(O)(c3cncnc3)C(C)(C)C)nc2)cc1` (centres unmarked) [Compound 101], for which the pest or weed control at 50 ppm was 80 to 100%.

In the case of `CC(C)(C)C(O)(c1cccnc1)c1ccc(-c2ccc(OC(F)F)cc2)cn1` (centres unmarked) [Compound 82], the pest or weed control at 50 ppm was in the range of 80 to 100%.

With `CC(C)(C)c1ccc(-c2ccc(C(O)(c3cccnc3)C(C)(C)C)nc2)cc1` (centres unmarked) [Compound 143], the pest or weed control at 50 ppm lay in the range of 80 to 100%.

Regarding `CC(C)(C)C(O)(c1cccnc1)c1ccc(-c2ccc(C3(C#N)CC3)cc2)cn1` (centres unmarked) [Compound 145], the pest or weed control at 50 ppm was 80 to 100%.

For the compound `CC(C)(C)C(O)(c1ccc(-c2ccc(OC(F)(F)F)cc2)cn1)c1cncs1` (centres unmarked) [Compound 84], the pest or weed control at 50 ppm lay within 80 to 100%.

Consider `OC(c1cccnc1)(c1ccc(-c2ccc(OC(F)F)cc2)cn1)C1CC1` (centres unmarked) [Compound 81], for which the pest or weed control at 50 ppm lay within 80 to 100%.

For `CSc1ccc(-c2ccc(C(O)(c3cncnc3)C(C)(C)C)nc2)cc1` (centres unmarked) [Compound 98], the pest or weed control at 50 ppm was 80 to 100%.

Test system in another assay: not listed separately
Nature of the assay: Type B (low volume, EC formulation, track sprayer 200 L/ha) assay, leaf blotch of wheat, SEPTTR field isolate (FI SEPTTR). It is filed as in vivo, Mycosphaerella graminicola on wheat plants (variety Yuma). The following applies: Zymoseptoria tritici, 72 h, field isolate; low volume EC; 100 g/ha; 3 Day Curative; wheat (Yuma); read-out: Disease Control, FI SEPTTR Type B Assay (100 g/ha) 3 DC. The procedure, abridged: as §1
Turning to `CC(C)(C)C(O)(c1ccc(-c2ccc(OC(F)F)cc2)cn1)c1cncs1` (centres unmarked) [Compound 86], the pest or weed control at 100 g/ha lay within 80 to 100%.

On to `COc1ncncc1C(O)(c1ccc(-c2ccc(OC(F)(F)F)cc2)cn1)C(C)(C)C` (centres unmarked) [Compound 167], for which the pest or weed control at 100 g/ha lay within 80 to 100%.

Regarding `CC(C)(C)C(O)(c1cncnc1)c1ccc(-c2ccc(F)cc2)cn1` (centres unmarked) [Compound 115], the pest or weed control at 100 g/ha is 80 to 100%.

On to `CC(=O)c1ccc(-c2ccc(C(O)(c3cncnc3)C(C)(C)C)nc2)cc1` (centres unmarked) [Compound 101], for which the pest or weed control at 100 g/ha is 80 to 100%.

For the compound `CC(C)(C)C(O)(c1cccnc1)c1ccc(-c2ccc(OC(F)F)cc2)cn1` (centres unmarked) [Compound 82], the pest or weed control at 100 g/ha was in the range of 80 to 100%.

Consider `CC(C)(C)c1ccc(-c2ccc(C(O)(c3cccnc3)C(C)(C)C)nc2)cc1` (centres unmarked) [Compound 143], for which the pest or weed control at 100 g/ha was 80 to 100%.

As for `CC(C)(C)C(O)(c1cccnc1)c1ccc(-c2ccc(C3(C#N)CC3)cc2)cn1` (centres unmarked) [Compound 145], the pest or weed control at 100 g/ha is 80 to 100%.

For the compound `CC(C)(C)C(O)(c1ccc(-c2ccc(OC(F)(F)F)cc2)cn1)c1cncs1` (centres unmarked) [Compound 84], the pest or weed control at 100 g/ha was 60 to 79%.

For `OC(c1cccnc1)(c1ccc(-c2ccc(OC(F)F)cc2)cn1)C1CC1` (centres unmarked) [Compound 81], the pest or weed control at 100 g/ha is under 40%.

With `CSc1ccc(-c2ccc(C(O)(c3cncnc3)C(C)(C)C)nc2)cc1` (centres unmarked) [Compound 98], the pest or weed control at 100 g/ha lay in the range of 80 to 100%.

Still in this assay, the particulars now being: Zymoseptoria tritici, 72 h, field isolate; low volume EC; 100 g/ha; 3 Day Protectant; wheat (Yuma); read-out: Disease Control, FI SEPTTR Type B Assay (100 g/ha) 3 DP.
On to `CC(C)(C)C(O)(c1ccc(-c2ccc(OC(F)F)cc2)cn1)c1cncs1` (centres unmarked) [Compound 86], for which the pest or weed control at 100 g/ha lay in the range of 80 to 100%.

In the case of `COc1ncncc1C(O)(c1ccc(-c2ccc(OC(F)(F)F)cc2)cn1)C(C)(C)C` (centres unmarked) [Compound 167], the pest or weed control at 100 g/ha lay in the range of 80 to 100%.

With `CC(C)(C)C(O)(c1cncnc1)c1ccc(-c2ccc(F)cc2)cn1` (centres unmarked) [Compound 115], the pest or weed control at 100 g/ha lay in the range of 80 to 100%.

On to `CC(=O)c1ccc(-c2ccc(C(O)(c3cncnc3)C(C)(C)C)nc2)cc1` (centres unmarked) [Compound 101], for which the pest or weed control at 100 g/ha was 80 to 100%.

Consider `CC(C)(C)C(O)(c1cccnc1)c1ccc(-c2ccc(OC(F)F)cc2)cn1` (centres unmarked) [Compound 82], for which the pest or weed control at 100 g/ha lay in the range of 80 to 100%.

For `CC(C)(C)c1ccc(-c2ccc(C(O)(c3cccnc3)C(C)(C)C)nc2)cc1` (centres unmarked) [Compound 143], the pest or weed control at 100 g/ha lay within 80 to 100%.

`CC(C)(C)C(O)(c1cccnc1)c1ccc(-c2ccc(C3(C#N)CC3)cc2)cn1` (centres unmarked) [Compound 145]: the pest or weed control at 100 g/ha fell in the range of 80 to 100%.

For the compound `CC(C)(C)C(O)(c1ccc(-c2ccc(OC(F)(F)F)cc2)cn1)c1cncs1` (centres unmarked) [Compound 84], the pest or weed control at 100 g/ha is 60 to 79%.

With `OC(c1cccnc1)(c1ccc(-c2ccc(OC(F)F)cc2)cn1)C1CC1` (centres unmarked) [Compound 81], the pest or weed control at 100 g/ha fell in the range of 80 to 100%.

On to `CSc1ccc(-c2ccc(C(O)(c3cncnc3)C(C)(C)C)nc2)cc1` (centres unmarked) [Compound 98], for which the pest or weed control at 100 g/ha was in the range of 80 to 100%.

The next assay concerns Mycosphaerella graminicola; Anamorph: Septoria tritici; Bayer Code SEPTTR (standard laboratory isolate, SI SEPTTR). Description: Type B (low volume, EC formulation, track sprayer 200 L/ha) assay, leaf blotch of wheat, standard laboratory SEPTTR isolate (SI SEPTTR). It is filed as in vivo, Mycosphaerella graminicola on wheat plants (variety Yuma). The following applies: Zymoseptoria tritici, 72 h; standard laboratory isolate; low volume EC; 100 g/ha; 3 Day Curative; wheat (Yuma); read-out: Disease Control, SI SEPTTR Type B Assay (100 g/ha) 3 DC. The method, then: Example A: Evaluation of Fungicidal Activity: Leaf Blotch of Wheat (Mycosphaerella graminicola; Anamorph: Septoria tritici; Bayer Code SEPTTR)
For Type A assays, technical grades of the experimental fungicides in Table 4 below were dissolved in acetone, and then mixed with nine volumes of water containing 110 ppm Triton X-100. The fungicide solutions were applied onto wheat seedlings using an automated booth sprayer. For Type B assays, emulsifiable concentrate (EC) formulations of technical grades of the experimental fungicides in Table 4 below were prepared at 10% (w/v), and then mixed with 150 volumes of 0.1% Trycol 5941. These solutions were applied onto wheat seedlings using an automated track sprayer at 200 L/ha. All sprayed plants were allowed to air dry prior to further handling.
Wheat plants (variety Yuma) were grown from seed in a greenhouse in 50% mineral soil/50% soil-less Metro mix until the first leaf was fully emerged, with 7-10 seedlings per pot. Prior to or after application of experimental fungicides, plants were inoculated either with spores of a standard laboratory SEPTTR isolate (SI SEPTTR) or with spores from a SEPTTR field isolate collected from Wellsbourne, England in 2012 (FI SEPTTR). After inoculation the plants were kept for 3 days at 20° C. in 100% relative humidity (one day in a dark dew chamber followed by two days in a lighted dew chamber). Plants were then transferred to a 20° C. greenhouse for disease development. When disease symptoms were fully expressed on untreated plants, infection levels on treated plants were assessed on a scale of 0 to 100 percent disease severity. Percent disease control was calculated using the ratio of disease severity on treated plants relative to untreated plants.
`CC(C)(C)C(O)(c1ccc(-c2ccc(OC(F)F)cc2)cn1)c1cncs1` (centres unmarked) [Compound 86]: the pest or weed control at 100 g/ha lay in the range of 80 to 100%.

In the case of `COc1ncncc1C(O)(c1ccc(-c2ccc(OC(F)(F)F)cc2)cn1)C(C)(C)C` (centres unmarked) [Compound 167], the pest or weed control at 100 g/ha is 80 to 100%.

Take `CC(C)(C)C(O)(c1cncnc1)c1ccc(-c2ccc(F)cc2)cn1` (centres unmarked) [Compound 115]: the pest or weed control at 100 g/ha fell in the range of 80 to 100%.

For `CC(=O)c1ccc(-c2ccc(C(O)(c3cncnc3)C(C)(C)C)nc2)cc1` (centres unmarked) [Compound 101], the pest or weed control at 100 g/ha was in the range of 80 to 100%.

`CC(C)(C)C(O)(c1cccnc1)c1ccc(-c2ccc(OC(F)F)cc2)cn1` (centres unmarked) [Compound 82]: the pest or weed control at 100 g/ha fell in the range of 80 to 100%.

Take `CC(C)(C)c1ccc(-c2ccc(C(O)(c3cccnc3)C(C)(C)C)nc2)cc1` (centres unmarked) [Compound 143]: the pest or weed control at 100 g/ha was in the range of 80 to 100%.

Consider `CC(C)(C)C(O)(c1cccnc1)c1ccc(-c2ccc(C3(C#N)CC3)cc2)cn1` (centres unmarked) [Compound 145], for which the pest or weed control at 100 g/ha lay in the range of 80 to 100%.

On to `CC(C)(C)C(O)(c1ccc(-c2ccc(OC(F)(F)F)cc2)cn1)c1cncs1` (centres unmarked) [Compound 84], for which the pest or weed control at 100 g/ha was 80 to 100%.

As for `OC(c1cccnc1)(c1ccc(-c2ccc(OC(F)F)cc2)cn1)C1CC1` (centres unmarked) [Compound 81], the pest or weed control at 100 g/ha fell in the range of 80 to 100%.

Take `CSc1ccc(-c2ccc(C(O)(c3cncnc3)C(C)(C)C)nc2)cc1` (centres unmarked) [Compound 98]: the pest or weed control at 100 g/ha was 80 to 100%.

The same assay, now with this note: Zymoseptoria tritici, 72 h; standard laboratory isolate; low volume EC; 100 g/ha; 3 Day Protectant; wheat (Yuma); read-out: Disease Control, SI SEPTTR Type B Assay (100 g/ha) 3 DP.
For `CC(C)(C)C(O)(c1ccc(-c2ccc(OC(F)F)cc2)cn1)c1cncs1` (centres unmarked) [Compound 86], the pest or weed control at 100 g/ha was 80 to 100%.

Regarding `COc1ncncc1C(O)(c1ccc(-c2ccc(OC(F)(F)F)cc2)cn1)C(C)(C)C` (centres unmarked) [Compound 167], the pest or weed control at 100 g/ha was 60 to 79%.

Regarding `CC(C)(C)C(O)(c1cncnc1)c1ccc(-c2ccc(F)cc2)cn1` (centres unmarked) [Compound 115], the pest or weed control at 100 g/ha lay within 80 to 100%.

In the case of `CC(=O)c1ccc(-c2ccc(C(O)(c3cncnc3)C(C)(C)C)nc2)cc1` (centres unmarked) [Compound 101], the pest or weed control at 100 g/ha is 80 to 100%.

As for `CC(C)(C)C(O)(c1cccnc1)c1ccc(-c2ccc(OC(F)F)cc2)cn1` (centres unmarked) [Compound 82], the pest or weed control at 100 g/ha was 80 to 100%.

Consider `CC(C)(C)c1ccc(-c2ccc(C(O)(c3cccnc3)C(C)(C)C)nc2)cc1` (centres unmarked) [Compound 143], for which the pest or weed control at 100 g/ha lay within 60 to 79%.

For the compound `CC(C)(C)C(O)(c1cccnc1)c1ccc(-c2ccc(C3(C#N)CC3)cc2)cn1` (centres unmarked) [Compound 145], the pest or weed control at 100 g/ha lay in the range of 60 to 79%.

As for `CC(C)(C)C(O)(c1ccc(-c2ccc(OC(F)(F)F)cc2)cn1)c1cncs1` (centres unmarked) [Compound 84], the pest or weed control at 100 g/ha lay in the range of 80 to 100%.

With `OC(c1cccnc1)(c1ccc(-c2ccc(OC(F)F)cc2)cn1)C1CC1` (centres unmarked) [Compound 81], the pest or weed control at 100 g/ha was 60 to 79%.

In the case of `CSc1ccc(-c2ccc(C(O)(c3cncnc3)C(C)(C)C)nc2)cc1` (centres unmarked) [Compound 98], the pest or weed control at 100 g/ha was in the range of 80 to 100%.
